According to patent US7893271B2, “Benzimidazole carbamates and (thio) carbamates, and the synthesis and use thereof” (Intervet International B.V., priority 2005, dated 2011):
Values after ≈ are worked out from the molar mass of the structure shown. Values joined by “and” are separate entries in the source; they are usually repeats but may differ in a detail not shown here. Equal entries are not always repeated. Where two headings read alike, the source gives them in different places.

Columns and labels:
[1] = solubility in water of compounds of the invention
T. colubriformis = assay: anthelmintic efficacy in animals experimentally infected with T. colubriformis; type: in vivo, Meriones unguiculatus
Experimental: (§1) The compounds were tested at doses of 3 mg/kg bodyweight (BW), 1 mg/kg BW and 0.3 mg/kg BW.
(§2) The animals were orally infected L3-larvae of each T. axei and T. colubriformis. On D 19 post infectionem (PI) animals were treated once IP, SC or PO with the test compounds in 10% DMF/90% water a dose of 3 mg/kg BW, 1 mg/kg BW or 0.3 mg/kg BW. Three days after treatment animals were necropsied and worm burden in stomach and small intestine was determined. Efficacy was defined as the reduction of the mean worm count (geometric mean) in the treatment groups in comparison to the control group. The dose-response relationship was investigated by calculating Pearson's coefficient of correlation.

Haemonchus contortus = assay: anthelmintic efficacy in animals experimentally infected with Haemonchus contortus; type: in vivo, Meriones unguiculatus
Experimental: as §1
The animals were orally infected with L3-larvae of H. contortus. On D 10 post infectionem (PI) animals were treated once IP, SC or PO with the test compounds in 10% DMF/90% water at doses of 3.0 mg/kg BW, 1.0 mg/kg BW or 0.3 mg/kg BW. Three days after treatment animals were necropsied and larvae burden in stomachs was determined. Efficacy was defined as the reduction of the mean larvae count (geometric mean) in the treatment groups in comparison to the control group. The dose-response relationship was investigated by calculating Pearson's coefficient of correlation.

[2] = system: Oesophagostomum dentatum (nodular worm of swine), larval stages 3 and 4; assay: in vitro larval assay, minimum effective concentration; type: cell-based; details: day 5, 20 larvae per well
Experimental: (§3) Anthelmintic effects of the compounds of the present invention were tested in vitro using gut welling larval stages of two parasitic nematode species: Ascaridia galli (intestinal roundworm of chicken), larval stage 3 (L3), and Oesophagostomum dentatum (nodular worm of swine), larval stages 3 and 4 (L3; LA).
(§4) Principle of the assays: Various concentrations of compounds were incubated in 96 well microtiter plates, in which parasites were then distributed at 20 larvae per well. The anthelmintic effects were classified at day 5 by microscopic examination assessing mortality, damage, motility, progression of development and neutral red uptake by the larvae in comparison to a DMSO-control and the standard anthelmintics fenbendazole. The anthelmintic effects were defined by the minimum effective concentration (MEC) as reflected in table 1.

[3] = system: Ascaridia galli (intestinal roundworm of chicken), larval stage 3 (L3); assay: as above; type: cell-based; details: day 5, 20 larvae per well, microscopic examination
Experimental: as §3, §4

T. axei = assay: anthelmintic efficacy in animals experimentally infected with Trichostrongylus axei; type: in vivo, Meriones unguiculatus
Experimental: as §1, §2

[4] = in water; literature; cited from earlier work
[5] = reported; cited from earlier work
[6] = 0.3 mg/kg BW once, IP (fenbendazole equivalent 0.3; Compound A 0.2 mg/kg)
[7] = 0.3 mg/kg BW once, PO (fenbendazole equivalent 0.3; Compound A 0.2 mg/kg)
[8] = 0.3 mg/kg BW once, SC (fenbendazole equivalent 0.3; Compound A 0.2 mg/kg)
[9] = 1 mg/kg BW once, IP (fenbendazole equivalent 1.0; Compound A 0.6 mg/kg)
[10] = 1 mg/kg BW once, PO (fenbendazole equivalent 1.0; Compound A 0.6 mg/kg)
[11] = 1 mg/kg BW once, SC (fenbendazole equivalent 1.0; Compound A 0.6 mg/kg)
[12] = 3 mg/kg BW once, IP (fenbendazole equivalent 3.0; Compound A 1.8 mg/kg)
[13] = 3 mg/kg BW once, IP (fenbendazole equivalent 3.0; Compound A 1.8 mg/kg), listed as Fenbendazole
[14] = 3 mg/kg BW once, PO (fenbendazole equivalent 3.0; Compound A 1.8 mg/kg)
[15] = 3 mg/kg BW once, PO (fenbendazole equivalent 3.0; Compound A 1.8 mg/kg), listed as Fenbendazole
[16] = 3 mg/kg BW once, SC (fenbendazole equivalent 3.0; Compound A 1.8 mg/kg)
[17] = 3 mg/kg BW once, SC (fenbendazole equivalent 3.0; Compound A 1.8 mg/kg), listed as Fenbendazole

| Compound | Reduction worm number (%) T. colubriformis (T. colubriformis; [6]) [%] | Reduction worm number (%) T. colubriformis (T. colubriformis; [7]) [%] | Reduction worm number (%) T. colubriformis (T. colubriformis; [8]) [%] | Reduction worm number (%) T. colubriformis (T. colubriformis; [9]) [%] | Reduction worm number (%) T. colubriformis (T. colubriformis; [10]) [%] | Reduction worm number (%) T. colubriformis (T. colubriformis; [11]) [%] | Reduction worm number (%) T. colubriformis (T. colubriformis; [12]) [%] | Reduction worm number (%) T. colubriformis (T. colubriformis; [14]) [%] | Reduction worm number (%) T. colubriformis (T. colubriformis; [16]) [%] | Reduction worm number (%) H. contortus larvae (Haemonchus contortus; [6]) [%] | Reduction worm number (%) H. contortus larvae (Haemonchus contortus; [7]) [%] | Reduction worm number (%) H. contortus larvae (Haemonchus contortus; [8]) [%] | Reduction worm number (%) H. contortus larvae (Haemonchus contortus; [9]) [%] | Reduction worm number (%) H. contortus larvae (Haemonchus contortus; [10]) [%] | Reduction worm number (%) H. contortus larvae (Haemonchus contortus; [11]) [%] | Reduction worm number (%) H. contortus larvae (Haemonchus contortus; [12]) [%] | Reduction worm number (%) H. contortus larvae (Haemonchus contortus; [14]) [%] | Reduction worm number (%) H. contortus larvae (Haemonchus contortus; [16]) [%] | Reduction worm number (%) T. axei (T. axei; [6]) [%] | Reduction worm number (%) T. axei (T. axei; [7]) [%] | also measured |
| --- | --- | --- | --- | --- | --- | --- | --- | --- | --- | --- | --- | --- | --- | --- | --- | --- | --- | --- | --- | --- | --- |
| CCCSc1ccc2c(c1)nc(NC(=O)OC)n2COP(=O)([O-])[O-].[Na+].[Na+] [(1-phosphonooxymethyl-5- and 6-propylsulfanyl-1(H)-benzoimidazol-2-yl)-carbamic acid methyl esters] |  |  |  |  |  |  |  |  |  |  |  |  |  |  |  |  |  |  |  |  | solubility ([1]; water): ≥ 50 mM |
| COC(=O)Nc1nc2ccc(Sc3ccccc3)cc2[nH]1 [fenbendazole, reference compound] | 79.33 | 68.75 | 43.18 | 80.04 | 80.04 | 81.10 | 100 | 100 | 100 | 80.63 | 91.73 | 88.36 | 89.33 | 78.05 | 89.16 | 100.00 | 96.49 | 95.10 | −283.85 | −115.44 | Reduction worm number (%) T. colubriformis (T. colubriformis; [13]): 100.00%; Reduction worm number (%) T. colubriformis (T. colubriformis; [15]): 100.00%; Reduction worm number (%) T. colubriformis (T. colubriformis; [17]): 100.00%; Minimum effective concentrations O. dentatum (L3) ([2]; L3): 1.000 µM; Minimum effective concentrations O. dentatum (L4) ([2]; L4): 0.025 µM; Minimum effective concentrations A. galli (L3) [3]: 0.050 µM; Reduction worm number (%) T. axei (T. axei; [8]): 82.15%; Reduction worm number (%) T. axei (T. axei; [9]): 80.94%; Reduction worm number (%) T. axei (T. axei; [10]): 88.80%; Reduction worm number (%) T. axei (T. axei; [11]): 82.15%; Reduction worm number (%) T. axei (T. axei; [12]): 100%; Reduction worm number (%) T. axei (T. axei; [13]): 100.00%; Reduction worm number (%) T. axei (T. axei; [14]): 100%; Reduction worm number (%) T. axei (T. axei; [15]): 100.00%; Reduction worm number (%) T. axei (T. axei; [16]): 100%; Reduction worm number (%) T. axei (T. axei; [17]): 100.00%; solubility [4]: lower than 0.05 μg/mL |
| CCCSc1ccc([N+](=O)[O-])c(N/C(=N/CCS(=O)(=O)O)NC(=O)OC)c1 [netobimin] |  |  |  |  |  |  |  |  |  |  |  |  |  |  |  |  |  |  |  |  | embryonal toxicity [5]: reported to cause embryonal toxicity |
| COc1ccc2[nH]c([S+]([O-])Cc3ncc(C)c(OC)c3C)nc2c1 (centres unmarked) [omeprazole] |  |  |  |  |  |  |  |  |  |  |  |  |  |  |  |  |  |  |  |  | solubility [4]: 500 µg/mL (≈ 1450 µM) |
| (5- and 6-phenylsulfanyl-1-phosphonooxymethyl-1(H)-benzoimidazol-2-yl)-carbamic acid methyl esters [Compound A] | −50.17 | −3.71 | −106.50 | 28.18 | 37.27 | 68.61 | 93.26 | 100.00 | 85.70 | 65.02 | 87.00 | 47.40 | 90.65 | 88.62 | 87.61 | 93.81 | 90.81 | 94.84 | 69.66 | 59.20 | overall efficacy compared with fenbendazole (T. colubriformis; T. colubriformis, all doses and routes): same efficacy as treatment with fenbendazole; overall efficacy compared with fenbendazole (Haemonchus contortus; H. contortus, all doses and routes): same efficacy as treatment with fenbendazole; Reduction worm number (%) T. axei (T. axei; [8]): −43.64%; Reduction worm number (%) T. axei (T. axei; 0.3 mg/kg BW once, SC (fenbendazole equivalent 0.3; Compound A 0.2 mg/kg), listed as compound A): 43.64%; Reduction worm number (%) T. axei (T. axei; [9]): 83.98%; Reduction worm number (%) T. axei (T. axei; [10]): 96.71%; Reduction worm number (%) T. axei (T. axei; [11]): 82.98%; Reduction worm number (%) T. axei (T. axei; [12]): 100.00%; Reduction worm number (%) T. axei (T. axei; 3 mg/kg BW once, IP (fenbendazole equivalent 3.0; Compound A 1.8 mg/kg), listed as compound A): 100%; Reduction worm number (%) T. axei (T. axei; [14]): 98.00%; Reduction worm number (%) T. axei (T. axei; [16]): 100.00%; Reduction worm number (%) T. axei (T. axei; 3 mg/kg BW once, SC (fenbendazole equivalent 3.0; Compound A 1.8 mg/kg), listed as compound A): 100%; overall efficacy compared with fenbendazole (T. axei; T. axei, all doses and routes): same efficacy as treatment with fenbendazole |
| (5- and 6-phenylsulfanyl-1-phosphonooxymethyl-1(H)-benzoimidazol-2-yl)-carbamic acid methyl esters di-sodium salts |  |  |  |  |  |  |  |  |  |  |  |  |  |  |  |  |  |  |  |  | solubility in water [1]: 132 mM and 67 g/L |
